Experimental data published in patent US10100097B2, “GIP-GLP-1 dual agonist compounds and methods” (Zealand Pharma A/S, priority 2012, dated 2018).
Numbered stars: 1 amine (or outer) side, 2 acyl side, 3 side chain; on linkers, the order of the positions; unused ones are H or OH. Square brackets hold non-standard residues; d marks the D form. Side chains are listed from the residue outwards. Peptide text beside a SMILES is read from it. * marks the point of attachment. γGlu = O=C(O)[C@H](CCC(=O)[*:2])N[*:1]; 1Nal = N[C@@H](Cc1cccc2ccccc12)C(=O)O; Palmitoyl = CCCCCCCCCCCCCCCC(=O)*; Aib = CC(C)(N)C(=O)O

Molecular target: T1, human GLP-1 R (Homo sapiens, UniProt P43220)
T1 construct: expressed in transfected cells
Experiment: Human GLP-1 receptor (GLP-1 R) activity assay, cAMP induction (AlphaScreen cAMP kit)
Type: cell-based
Settings: HEK293 cells expressing the human GLP-1 R, 15 min at 37° C., average values of multiple determinations, read-out: GLP1 R (EC50 in nM)
Experimental: Human GIP Receptor (GIP R) and GLP-1 Receptor (GLP-1 R) Activity Assay
In vitro effects of peptide conjugates of the invention were assessed by measuring the induction of cAMP following stimulation of the respective receptor by GIP, GLP1 or analogues of these, as outlined in the invention, using the AlphaSceen® cAMP kit from Perkin-Elmer according to instructions. Briefly. HEK293 cells expressing the human GIP R or GLP-1 R (stable cell lines generated through transfection of the cDNA for human GIP R or GLP-1 and selection of stable clones) were seeded at 30,000 cells/well in 96-well microtiter plates coated with 0.01% poly-L-lysine, and grown for 1 day in culture in 200 μl growth medium (DMEM, 10% FCS, Penicillin (100 IU/ml), Streptomycin (100 μg/ml)). On the day of analysis, growth medium was removed and the cells were washed once with […] Tyrode's buffer (Tyrode's Salts (9.6 g/1), 10 mM HEPES, pH 7.4). […] The Assay buffer was removed and cells are lysed in 80 μl Lysis buffer (0.1% w/v BSA, 5 mM HEPES, 0.3% v/v Tween-20) per well. From each well 10 μl lysed cells was transferred to a 384-well plate and mixed with 15 μl bead-mix (1 Unit/15 μl anti-cAMP Acceptor Beads, 1 Unit/15 μl Donor Beads, and 1 Unit/15 μl Biotinylated cAMP in Assay Buffer). The plates were mixed and incubated in the dark for an hour at room temperature before measuring using an Envision™ plate reader (Perkin-Elmer).

T1 sequence (P43220 24-463): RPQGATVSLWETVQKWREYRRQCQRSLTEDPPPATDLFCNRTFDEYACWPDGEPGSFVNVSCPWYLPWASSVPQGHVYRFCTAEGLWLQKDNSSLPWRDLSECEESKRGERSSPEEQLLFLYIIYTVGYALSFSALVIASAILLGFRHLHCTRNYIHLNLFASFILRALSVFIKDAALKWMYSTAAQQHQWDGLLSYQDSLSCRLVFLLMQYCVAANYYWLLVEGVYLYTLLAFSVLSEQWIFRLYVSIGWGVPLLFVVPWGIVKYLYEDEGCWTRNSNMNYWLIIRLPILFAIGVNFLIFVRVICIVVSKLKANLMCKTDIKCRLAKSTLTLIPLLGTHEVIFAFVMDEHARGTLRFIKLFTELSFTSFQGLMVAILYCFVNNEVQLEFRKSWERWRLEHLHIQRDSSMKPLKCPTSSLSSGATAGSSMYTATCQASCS

EC50 [nM] | Structure (SMILES)
0.012 | CC[C@H](C)[C@H](NC(=O)[C@H](CO)NC(=O)[C@H](Cc1ccc(O)cc1)NC(=O)[C@H](CC(=O)O)NC(=O)[C@H](CO)NC(=O)[C@@H](NC(=O)[C@H](Cc1ccccc1)NC(=O)[C@@H](NC(=O)CNC(=O)[C@H](CCC(=O)O)NC(=O)C(C)(C)NC(=O)[C@@H](N)Cc1ccc(O)cc1)[C@@H](C)O)[C@@H](C)O)C(=O)N[C@@H](Cc1ccc(O)cc1)C(=O)N[C@@H](CC(C)C)C(=O)N[C@@H](CC(=O)O)C(=O)N[C@@H](CCCCN)C(=O)N[C@@H](CCCCN)C(=O)N[C@@H](C)C(=O)N[C@@H](CCC(N)=O)C(=O)N[C@@H](CCCNC(=N)N)C(=O)N[C@@H](C)C(=O)N[C@@H](Cc1ccccc1)C(=O)N[C@H](C(=O)N[C@@H](CC(N)=O)C(=O)N[C@@H](Cc1c[nH]c2ccccc12)C(=O)N[C@@H](CC(C)C)C(=O)N[C@@H](CCCCN)C(=O)N[C@@H](C)C(=O)NC(C)(C)C(=O)N[C@@H](CCCCN)C(N)=O)C(C)C [Compound 23] (H-Y[Aib]EGTFTSDYSIYLDKKAQRAFVNWLKA[Aib]K-NH2)
0.041 | CC[C@H](C)[C@H](NC(=O)[C@H](CO)NC(=O)[C@H](Cc1ccc(O)cc1)NC(=O)[C@H](CC(=O)O)NC(=O)[C@H](CO)NC(=O)[C@@H](NC(=O)[C@H](Cc1ccccc1)NC(=O)[C@@H](NC(=O)CNC(=O)[C@H](CCC(=O)O)NC(=O)C(C)(C)NC(=O)[C@@H](N)Cc1ccc(O)cc1)[C@@H](C)O)[C@@H](C)O)C(=O)N[C@@H](Cc1ccc(O)cc1)C(=O)N[C@@H](CC(C)C)C(=O)N[C@@H](CC(=O)O)C(=O)N[C@@H](CCCCN)C(=O)N[C@@H](CCCCN)C(=O)N[C@@H](C)C(=O)N[C@@H](CCC(N)=O)C(=O)N[C@@H](CCCNC(=N)N)C(=O)N[C@@H](C)C(=O)N[C@@H](Cc1ccccc1)C(=O)N[C@H](C(=O)N[C@@H](CC(N)=O)C(=O)N[C@@H](Cc1c[nH]c2ccccc12)C(=O)N[C@@H](CC(C)C)C(=O)N[C@@H](CC(C)C)C(=O)N[C@@H](C)C(=O)NC(C)(C)C(=O)N[C@@H](CCCCN)C(=O)N[C@@H](Cc1ccc(O)cc1)C(=O)NCC(=O)N[C@@H](Cc1cccc2ccccc12)C(=O)N[C@@H](CC(C)C)C(=O)N[C@@H](CC(=O)O)C(=O)N[C@@H](Cc1ccccc1)C(N)=O)C(C)C [Compound 25] (H-Y[Aib]EGTFTSDYSIYLDKKAQRAFVNWLLA[Aib]KYG[1Nal]LDF-NH2)
0.031 | CCCCCCCCCCCCCCCC(=O)N[C@@H](CCC(=O)NCCCC[C@H](NC(=O)[C@H](CCC(=O)O)NC(=O)[C@H](CC(=O)O)NC(=O)[C@H](CC(C)C)NC(=O)[C@H](Cc1ccc(O)cc1)NC(=O)[C@@H](NC(=O)[C@H](CO)NC(=O)[C@H](Cc1ccc(O)cc1)NC(=O)[C@H](CC(=O)O)NC(=O)[C@H](CO)NC(=O)[C@@H](NC(=O)[C@H](Cc1ccccc1)NC(=O)[C@@H](NC(=O)CNC(=O)[C@H](CCC(=O)O)NC(=O)C(C)(C)NC(=O)[C@@H](N)Cc1ccc(O)cc1)[C@@H](C)O)[C@@H](C)O)[C@@H](C)CC)C(=O)N[C@@H](C)C(=O)N[C@@H](C)C(=O)N[C@@H](CCCCN)C(=O)N[C@@H](CCC(=O)O)C(=O)N[C@@H](Cc1ccccc1)C(=O)N[C@H](C(=O)N[C@@H](CCC(=O)O)C(=O)N[C@@H](Cc1c[nH]c2ccccc12)C(=O)N[C@@H](CC(C)C)C(=O)N[C@@H](CCC(=O)O)C(=O)N[C@@H](CO)C(=O)N[C@@H](C)C(N)=O)[C@@H](C)CC)C(=O)O [Compound 34] (H-Y[Aib]EGTFTSDYSIYLDEK([γGlu-Palmitoyl])AAKEFIEWLESA-NH2)
0.018 | CC[C@H](C)[C@H](NC(=O)[C@H](CO)NC(=O)[C@H](Cc1ccc(O)cc1)NC(=O)[C@H](CC(=O)O)NC(=O)[C@H](CO)NC(=O)[C@@H](NC(=O)[C@H](Cc1ccccc1)NC(=O)[C@@H](NC(=O)CNC(=O)[C@H](CCC(=O)O)NC(=O)C(C)(C)NC(=O)[C@@H](N)Cc1ccc(O)cc1)[C@@H](C)O)[C@@H](C)O)C(=O)N[C@@H](Cc1ccc(O)cc1)C(=O)N[C@@H](CC(C)C)C(=O)N[C@@H](CCC(=O)O)C(=O)N[C@@H](CCCCN)C(=O)N[C@@H](CCCCN)C(=O)N[C@@H](C)C(=O)N[C@@H](C)C(=O)N[C@@H](CCCCN)C(=O)N[C@@H](CC(=O)O)C(=O)N[C@@H](Cc1ccccc1)C(=O)N[C@H](C(=O)N[C@@H](CCC(=O)O)C(=O)N[C@@H](Cc1c[nH]c2ccccc12)C(=O)N[C@@H](CC(C)C)C(=O)N[C@@H](CC(C)C)C(=O)N[C@@H](CO)C(=O)N[C@@H](C)C(N)=O)C(C)C [Compound 37] (H-Y[Aib]EGTFTSDYSIYLEKKAAKDFVEWLLSA-NH2)
0.011 | CC[C@H](C)[C@H](NC(=O)[C@H](CO)NC(=O)[C@H](Cc1ccc(O)cc1)NC(=O)[C@H](CC(=O)O)NC(=O)[C@H](CO)NC(=O)[C@@H](NC(=O)[C@H](Cc1ccccc1)NC(=O)[C@@H](NC(=O)CNC(=O)[C@H](CCC(=O)O)NC(=O)C(C)(C)NC(=O)[C@@H](N)Cc1ccc(O)cc1)[C@@H](C)O)[C@@H](C)O)C(=O)N[C@@H](Cc1ccc(O)cc1)C(=O)N[C@@H](CC(C)C)C(=O)N[C@@H](CCC(=O)O)C(=O)N[C@@H](CCCCN)C(=O)N[C@@H](CCCCN)C(=O)N[C@@H](C)C(=O)N[C@@H](CCC(N)=O)C(=O)N[C@@H](CCCCN)C(=O)N[C@@H](CCC(=O)O)C(=O)N[C@@H](Cc1ccccc1)C(=O)N[C@H](C(=O)N[C@@H](CCC(=O)O)C(=O)N[C@@H](Cc1c[nH]c2ccccc12)C(=O)N[C@@H](CC(C)C)C(=O)N[C@@H](CC(C)C)C(=O)N[C@@H](CO)C(=O)N[C@@H](C)C(N)=O)C(C)C [Compound 39] (H-Y[Aib]EGTFTSDYSIYLEKKAQKEFVEWLLSA-NH2)
0.022 | CC[C@H](C)[C@H](NC(=O)[C@H](CO)NC(=O)[C@H](Cc1ccc(O)cc1)NC(=O)[C@H](CC(=O)O)NC(=O)[C@H](CO)NC(=O)[C@@H](NC(=O)[C@H](Cc1ccccc1)NC(=O)[C@@H](NC(=O)CNC(=O)[C@H](CCC(=O)O)NC(=O)C(C)(C)NC(=O)[C@@H](N)Cc1ccc(O)cc1)[C@@H](C)O)[C@@H](C)O)C(=O)N[C@@H](Cc1ccc(O)cc1)C(=O)N[C@@H](CC(C)C)C(=O)N[C@@H](CC(=O)O)C(=O)N[C@@H](CCC(=O)O)C(=O)N[C@@H](CCCCN)C(=O)N[C@@H](C)C(=O)N[C@@H](C)C(=O)N[C@@H](CCCCN)C(=O)N[C@@H](CC(=O)O)C(=O)N[C@@H](Cc1ccccc1)C(=O)N[C@H](C(=O)N[C@@H](CCC(=O)O)C(=O)N[C@@H](Cc1c[nH]c2ccccc12)C(=O)N[C@@H](CC(C)C)C(=O)N[C@@H](CC(C)C)C(=O)N[C@@H](CO)C(=O)N[C@@H](C)C(N)=O)C(C)C [Compound 40] (H-Y[Aib]EGTFTSDYSIYLDEKAAKDFVEWLLSA-NH2)
0.011 | CC[C@H](C)[C@H](NC(=O)[C@H](CO)NC(=O)[C@H](Cc1ccc(O)cc1)NC(=O)[C@H](CC(=O)O)NC(=O)[C@H](CO)NC(=O)[C@@H](NC(=O)[C@H](Cc1ccccc1)NC(=O)[C@@H](NC(=O)CNC(=O)[C@H](CCC(=O)O)NC(=O)C(C)(C)NC(=O)[C@@H](N)Cc1ccc(O)cc1)[C@@H](C)O)[C@@H](C)O)C(=O)N[C@@H](Cc1ccc(O)cc1)C(=O)N[C@@H](CC(C)C)C(=O)N[C@@H](CCC(=O)O)C(=O)N[C@@H](CO)C(=O)N[C@@H](CCCCN)C(=O)N[C@@H](C)C(=O)N[C@@H](C)C(=O)N[C@@H](Cc1c[nH]cn1)C(=O)N[C@@H](CC(=O)O)C(=O)N[C@@H](Cc1ccccc1)C(=O)N[C@H](C(=O)N[C@@H](CCC(=O)O)C(=O)N[C@@H](Cc1c[nH]c2ccccc12)C(=O)N[C@@H](CC(C)C)C(=O)N[C@@H](CC(C)C)C(=O)N[C@@H](CO)C(=O)N[C@@H](C)C(N)=O)C(C)C [Compound 41] (H-Y[Aib]EGTFTSDYSIYLESKAAHDFVEWLLSA-NH2)

Structure (SMILES) | EC50 [nM]
CCCCCCCCCCCCCCCC(=O)N[C@@H](CCC(=O)NCCCC[C@H](NC(=O)[C@H](CCCCN)NC(=O)[C@H](CC(=O)O)NC(=O)[C@H](CC(C)C)NC(=O)[C@H](Cc1ccc(O)cc1)NC(=O)[C@@H](NC(=O)[C@H](CO)NC(=O)[C@H](Cc1ccc(O)cc1)NC(=O)[C@H](CC(=O)O)NC(=O)[C@H](CO)NC(=O)[C@@H](NC(=O)[C@H](Cc1ccccc1)NC(=O)[C@@H](NC(=O)CNC(=O)[C@H](CCC(=O)O)NC(=O)C(C)(C)NC(=O)[C@@H](N)Cc1ccc(O)cc1)[C@@H](C)O)[C@@H](C)O)[C@@H](C)CC)C(=O)N[C@@H](C)C(=O)N[C@@H](CCC(N)=O)C(=O)N[C@@H](CCCNC(=N)N)C(=O)N[C@@H](C)C(=O)N[C@@H](Cc1ccccc1)C(=O)N[C@H](C(=O)N[C@@H](CC(N)=O)C(=O)N[C@@H](Cc1c[nH]c2ccccc12)C(=O)N[C@@H](CC(C)C)C(=O)N[C@@H](CC(C)C)C(=O)N[C@@H](C)C(=O)NC(C)(C)C(=O)N[C@@H](CCCCN)C(=O)N1CCC[C@H]1C(=O)N[C@@H](CO)C(=O)N[C@@H](CO)C(=O)NCC(=O)N[C@@H](C)C(=O)N1CCC[C@H]1C(=O)N1CCC[C@H]1C(=O)N1CCC[C@H]1C(=O)N[C@@H](CO)C(N)=O)C(C)C)C(=O)O [Compound 35] | 0.022
